In PubChem BioAssay AID248 (DTP/NCI, 2004) one finds T/C data, which are given here for 14 compounds.

In the test the test system is L1210 leukemia ip in BDF1 mice, survival T/C. The test can be described thus: NCI In Vivo Anticancer Drug Screen. Data for tumor model L1210 Leukemia (intraperitoneal) in B6D2F1 (BDF1) mice. The settings on record: endpoint: mean survival time, higher = longer survival. Summed up: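 Mice bearing the transplanted tumor received compound or vehicle. Survival of the treated group was divided by that of the vehicle-treated control group to give the ratio.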

[1] abbreviates: dose: 100.0 mg/kg/injection, schedule: Q01DX001 (ip), vehicle: carboxymethylcellulose (CMC).
[2] abbreviates: dose: 200.0 mg/kg/injection, schedule: Q01DX001 (ip), vehicle: carboxymethylcellulose (CMC).
Where [3] appears, read: dose: 400.0 mg/kg/injection, schedule: Q01DX001 (ip), vehicle: carboxymethylcellulose (CMC).
Where [4] appears, read: dose: 100.0 mg/kg/injection, schedule: Q01DX009 (ip), vehicle: Klucel (hydroxypropylcellulose) (HPC).
Where [5] appears, read: dose: 200.0 mg/kg/injection, schedule: Q01DX009 (ip), vehicle: Klucel (hydroxypropylcellulose) (HPC).
[6] abbreviates: dose: 400.0 mg/kg/injection, schedule: Q01DX009 (ip), vehicle: Klucel (hydroxypropylcellulose) (HPC).
Setting [7] is: dose: 100.0 mg/kg/injection, schedule: Q04DX003 (ip), vehicle: saline with Tween-80.
Setting [8] is: dose: 200.0 mg/kg/injection, schedule: Q04DX003 (ip), vehicle: saline with Tween-80.
Setting [9] is: dose: 400.0 mg/kg/injection, schedule: Q04DX003 (ip), vehicle: saline with Tween-80.
[10] abbreviates: dose: 50.0 mg/kg/injection, schedule: Q04DX003 (ip), vehicle: saline with Tween-80.

Where “and” joins values, the source holds several entries; their conditions need not be identical. Equal entries are not always repeated. Toxic doses and inconclusive results are not listed.

As for `CCCNC(=O)NCCN(CC)c1ccccc1`, the T/C under setting [1] is 97 % of control; the T/C (dose: 100.0 mg/kg/injection, schedule: Q01DX009 (ip), vehicle: carboxymethylcellulose (CMC)) is 93 % of control and 101 % of control; the T/C (dose: 100.0 mg/kg/injection, schedule: Q04DX002 (ip), vehicle: carboxymethylcellulose (CMC)) is 94 % of control and 97 % of control; the T/C (dose: 100.0 mg/kg/injection, schedule: Q04DX003 (ip), vehicle: carboxymethylcellulose (CMC)) is 100 % of control; the T/C under setting [2] is 96 % of control; the T/C (dose: 200.0 mg/kg/injection, schedule: Q01DX009 (ip), vehicle: carboxymethylcellulose (CMC)) is 104 % of control and 87 % of control. Moreover, the T/C was 105 % of control and 87 % of control (dose: 200.0 mg/kg/injection, schedule: Q04DX002 (ip), vehicle: carboxymethylcellulose (CMC)); 109 % of control (dose: 200.0 mg/kg/injection, schedule: Q04DX003 (ip), vehicle: carboxymethylcellulose (CMC)); 96 % of control under setting [3]; 93 % of control and 103 % of control (dose: 400.0 mg/kg/injection, schedule: Q01DX009 (ip), vehicle: carboxymethylcellulose (CMC)); 93 % of control and 97 % of control (dose: 400.0 mg/kg/injection, schedule: Q04DX002 (ip), vehicle: carboxymethylcellulose (CMC)); 102 % of control (dose: 400.0 mg/kg/injection, schedule: Q04DX003 (ip), vehicle: carboxymethylcellulose (CMC)).

Take `Cc1ccc(S(=O)(=O)N2CC(=O)N(S(=O)(=O)c3ccc(C)cc3)CC2=O)cc1`: the T/C by setting is: (dose: 100.0 mg/kg/injection, schedule: Q01DX001 (ip), vehicle: other) 106 % of control; (dose: 200.0 mg/kg/injection, schedule: Q01DX001 (ip), vehicle: other) 103 % of control; (dose: 400.0 mg/kg/injection, schedule: Q01DX001 (ip), vehicle: other) 106 % of control.

Regarding `O=C(Nc1ccccc1C(F)(F)F)N(CC(O)c1ccccc1)C1CCCCC1` (configuration not stated), the T/C under setting [4] was 106 % of control, the T/C under setting [5] is 95 % of control and the T/C under setting [6] was 100 % of control.

As to `CC1(C)C2CCC(I)(C2)C1O` (configuration not stated), the T/C by setting is: (dose: 100.0 mg/kg/injection, schedule: Q01DX001 (ip), vehicle: saline with Tween-80) 105 % of control; (dose: 200.0 mg/kg/injection, schedule: Q01DX001 (ip), vehicle: saline with Tween-80) 100 % of control; (dose: 400.0 mg/kg/injection, schedule: Q01DX001 (ip), vehicle: saline with Tween-80) 105 % of control.

Take `c1ccc2c(-c3c4ccccc4cc4ccccc34)c3ccccc3cc2c1`: the T/C by setting is: (dose: 100.0 mg/kg/injection, schedule: Q04DX002 (ip), vehicle: Klucel (hydroxypropylcellulose) (HPC)) 91 % of control; (dose: 200.0 mg/kg/injection, schedule: Q04DX002 (ip), vehicle: Klucel (hydroxypropylcellulose) (HPC)) 105 % of control; (dose: 400.0 mg/kg/injection, schedule: Q04DX002 (ip), vehicle: Klucel (hydroxypropylcellulose) (HPC)) 91 % of control.

As to `CN(N=O)C(=O)Nc1ccc(NC(=O)N(C)N=O)cc1`, the T/C was 162 % of control (dose: 30.0 mg/kg/injection, schedule: Q01DX Z (ip), vehicle: carboxymethylcellulose (CMC)); 151 % of control (dose: 40.0 mg/kg/injection, schedule: Q01DX Z (ip), vehicle: carboxymethylcellulose (CMC)); 120 % of control (dose: 45.0 mg/kg/injection, schedule: Q01DX001 (ip), vehicle: carboxymethylcellulose (CMC)); 97 % of control (dose: 50.0 mg/kg/injection, schedule: Q01DX Z (ip), vehicle: carboxymethylcellulose (CMC)); 91 % of control (dose: 360.0 mg/kg/injection, schedule: Q01DX001 (ip), vehicle: carboxymethylcellulose (CMC)).

As to `CN1CCN=C1c1ccc(NC(=O)Nc2ccc(NC(=O)Nc3ccc(C4=NCCN4C)cc3)cc2)cc1`, the T/C is 108 % of control (dose: 6.5 mg/kg/injection, schedule: Q01DX009 (ip), vehicle: other); 105 % of control (dose: 10.0 mg/kg/injection, schedule: Q01DX009 (ip), vehicle: other); 118 % of control (dose: 15.0 mg/kg/injection, schedule: Q01DX009 (ip), vehicle: other); 118 % of control (dose: 22.0 mg/kg/injection, schedule: Q01DX009 (ip), vehicle: other); 162 % of control (dose: 33.0 mg/kg/injection, schedule: Q01DX009 (ip), vehicle: other); 227 % of control (dose: 50.0 mg/kg/injection, schedule: Q01DX009 (ip), vehicle: other). In addition, the T/C by setting is: (dose: 50.0 mg/kg/injection, schedule: Q01DX009 (ip), vehicle: saline) 191 % of control; (dose: 75.0 mg/kg/injection, schedule: Q01DX001 (ip), vehicle: other) 109 % of control; (dose: 75.0 mg/kg/injection, schedule: Q01DX009 (ip), vehicle: other) 204 % of control; (dose: 75.0 mg/kg/injection, schedule: Q01DX009 (ip), vehicle: saline) 191 % of control; (dose: 112.0 mg/kg/injection, schedule: Q01DX009 (ip), vehicle: other) 111 % of control; (dose: 112.0 mg/kg/injection, schedule: Q01DX009 (ip), vehicle: saline) 197 % of control. The T/C (dose: 150.0 mg/kg/injection, schedule: Q01DX001 (ip), vehicle: other) was 124 % of control.

Consider `CCSC(SCC)C1OC(C)(C)OC1C1COC(C)(C)O1` (configuration not stated), for which the T/C was 103 % of control under setting [1]; 96 % of control under setting [7]; 103 % of control under setting [2]; 94 % of control under setting [8]; 103 % of control under setting [3]; 91 % of control under setting [9].

On to `O=[N+]([O-])c1cc([N+](=O)[O-])c(NN(c2ccccc2)c2cccc3ccccc23)c([N+](=O)[O-])c1`, for which the T/C was 101 % of control (dose: 50.0 mg/kg/injection, schedule: Q01DX009 (ip), vehicle: Klucel (hydroxypropylcellulose) (HPC)); 101 % of control under setting [4]; 96 % of control (dose: 100.0 mg/kg/injection, schedule: Q04DX003 (ip), vehicle: Klucel (hydroxypropylcellulose) (HPC)); 102 % of control under setting [5]; 94 % of control (dose: 200.0 mg/kg/injection, schedule: Q04DX003 (ip), vehicle: Klucel (hydroxypropylcellulose) (HPC)); 98 % of control under setting [6]. Further, under “dose: 400.0 mg/kg/injection, schedule: Q04DX003 (ip), vehicle: Klucel (hydroxypropylcellulose) (HPC)”, the T/C is 94 % of control.

Regarding `CCCCOC(=O)c1cccnc1`, the T/C was 97 % of control under setting [10]; 94 % of control and 102 % of control under setting [7]; 103 % of control under setting [8]; 91 % of control under setting [9].

As for `O=C1OC(=O)C2C3CC(C(Br)C3C(F)(Br)Br)C12` (configuration not stated), the T/C is 87 % of control (dose: 100.0 mg/kg/injection, schedule: Q01DX009 (ip), vehicle: saline with Tween-80); 115 % of control under setting [7]; 93 % of control (dose: 200.0 mg/kg/injection, schedule: Q01DX009 (ip), vehicle: saline with Tween-80); 98 % of control under setting [8]; 90 % of control (dose: 400.0 mg/kg/injection, schedule: Q01DX009 (ip), vehicle: saline with Tween-80); 91 % of control under setting [9].

Take `COc1cc(C(=O)N(CCCl)N=O)cc(OC)c1OC`: the T/C (dose: 1.56 mg/kg/injection, schedule: Q01DX009 (ip), vehicle: saline with Tween-80) was 100 % of control; the T/C (dose: 3.12 mg/kg/injection, schedule: Q01DX009 (ip), vehicle: saline with Tween-80) was 100 % of control and 107 % of control; the T/C (dose: 6.25 mg/kg/injection, schedule: Q01DX009 (ip), vehicle: saline with Tween-80) was 100 % of control and 104 % of control; the T/C (dose: 12.5 mg/kg/injection, schedule: Q01DX009 (ip), vehicle: saline with Tween-80) is 104 % of control; the T/C (dose: 25.0 mg/kg/injection, schedule: Q04DX003 (ip), vehicle: saline with Tween-80) was 102 % of control; the T/C under setting [10] was 89 % of control. The T/C under setting [7] was 102 % of control and 86 % of control.

As for `CCOC(=O)N(OC(C)=O)P(=O)(N1CC1)N1CC1`, the T/C is, setting by setting: (dose: 100.0 mg/kg/injection, schedule: Q04DX002 (ip), vehicle: saline) 100 % of control; (dose: 200.0 mg/kg/injection, schedule: Q04DX002 (ip), vehicle: saline) 100 % of control; (dose: 400.0 mg/kg/injection, schedule: Q04DX002 (ip), vehicle: saline) 104 % of control.

Turning to `C/C=C/CC1(Cc2ccccc2)C(=O)NC(=S)NC1=O`, the T/C (dose: 10.0 mg/kg/injection, schedule: Q01DX001 (ip), vehicle: saline) was 102 % of control and the T/C (dose: 20.0 mg/kg/injection, schedule: Q01DX001 (ip), vehicle: saline) is 111 % of control.
